Results reported in patent US7417045B2, “Heterocyclic substituted pyridine or phenyl compounds with CXCR3 antagonist activity” (Schering Corporation, priority 2005, dated 2008).

These compounds were tested against T1, human CXCR3 (N-delta 4) (Homo sapiens, UniProt P49682) (assay: Human CXCR3 (N-delta 4) Scintillation Proximity Assay (SPA), [125I] IP-10 binding). Details: IC50 rating; [125I] IP-10 displacement, Ba/F3-hCXCR3 (N-delta 4) membranes.
T1 construct: CD8 leader (N); Flag tag; expressed in transfected cells; membranes
T1 sequence (P49682 5-368 limits assumed): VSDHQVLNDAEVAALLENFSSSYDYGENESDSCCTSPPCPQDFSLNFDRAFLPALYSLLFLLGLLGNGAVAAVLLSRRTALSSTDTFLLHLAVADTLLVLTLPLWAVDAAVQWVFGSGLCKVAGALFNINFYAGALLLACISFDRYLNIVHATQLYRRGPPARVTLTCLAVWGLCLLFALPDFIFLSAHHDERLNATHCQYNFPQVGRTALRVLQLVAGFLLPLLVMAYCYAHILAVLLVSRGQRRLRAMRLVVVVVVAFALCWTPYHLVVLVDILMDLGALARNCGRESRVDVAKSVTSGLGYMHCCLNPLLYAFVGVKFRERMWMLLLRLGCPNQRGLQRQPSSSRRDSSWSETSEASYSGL
Summary of the method: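 Membranes from Ba/F3 cells stably expressing Flag-tagged human CXCR3 (N-delta 4), 2 μg per point, precoupled 1 h to WGA SPA beads in HEPES buffer with CaCl2, MgCl2, NaCl, 1.0% BSA. Compounds titrated with 25 pM [125I] IP-10; bound label counted after 3 hr at room temperature.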

IC50, > 100 nM:
CC[C@H]1CN(c2ncc(-c3ncc[nH]3)cc2Cl)CCN1C1CCN(CC(=O)c2ccc(Cl)cc2)CC1 [Compound 164], CC[C@H]1CN(c2ncc(-c3nnn[nH]3)cc2Cl)CCN1C1CCN(Cc2ccc(Cl)cc2F)CC1 [Compound 169], CC[C@H]1CN(c2ncc(-c3ncc[nH]3)cc2Cl)CCN1C1CCN(C(=O)C2(c3ccc(Cl)cc3)CC2)CC1 [Compound 154], CC[C@H]1CN(c2ncc(-c3ncc[nH]3)cc2Cl)CCN1C1CCN([C@H](C(=O)NCC(F)(F)F)c2ccc(Cl)cc2)CC1 [Compound 155], CC[C@H]1CN(c2ncc(-c3ncc[nH]3)cc2Cl)CCN1[C@@H]1CCN(Cc2ccc(Cl)cc2C(=O)NC)C[C@H]1O [Compound 170], CC[C@H]1CN(c2ncc(-c3ncc[nH]3)cc2Cl)CCN1C1CCN(C(=O)c2ccc(C#CC(C)(C)NS(C)(=O)=O)cc2)CC1 [Compound 171], CC[C@H]1CN(c2ncc(-c3ncc[nH]3)cc2Cl)CCN1C1CCN(Cc2ccc(C(=O)O)cc2)CC1 [Compound 162], CC[C@H]1CN(c2ncc(-c3ncc[nH]3)cc2Cl)CCN1C1CCN([C@H](C(=O)NC2CC2)c2ccc(Cl)cc2)CC1 [Compound 149], CC[C@H]1CN(c2ncc(-c3nccn3C(c3ccccc3)(c3ccccc3)c3ccccc3)cc2Cl)CCN1C1CCN(Cc2ccc(Cl)cc2F)CC1 [Compound 145], CC[C@H]1CN(c2ncc(-c3ncc[nH]3)cc2Cl)CCN1C1CCN(C(=O)c2ccc(C#CC(C)(C)NS(N)(=O)=O)cc2)CC1 [Compound 168]

IC50, < 25 nM:
CC[C@H]1CN(c2ncc(-c3ncc[nH]3)cc2Cl)CCN1C1CCN(Cc2ccc(Cl)cc2C(=O)NN)CC1 [Compound 60], CC[C@H]1CN(c2ncc(-c3ncc[nH]3)cc2Cl)CCN1C1CCN(CCCC(=O)c2ccc(Cl)cc2)CC1 [Compound 83], CC[C@H]1CN(c2ncc(-c3nnc(CO)o3)cc2Cl)CCN1C1CCN(C(CO)c2ccc(Cl)cc2)CC1 (stereo partly shown) [Compound 39], CC[C@H]1CN(c2ncc(-c3nc(C(O)C(F)(F)F)c[nH]3)cc2Cl)CCN1C1CCN(Cc2ccc(Cl)cc2F)CC1 (stereo partly shown) [Compound 80], CC[C@H]1CN(c2ncc(-c3ncc[nH]3)cc2Cl)CCN1C1CCN(Cc2ccc(Cl)cc2-c2ncc[nH]2)CC1 [Compound 28], CC[C@H]1CN(c2ncc(-c3ncc[nH]3)cc2Cl)CCN1C1CCN(C(=O)c2ccc(Cl)cc2)CC1 [Compound 47], CC[C@H]1CN(c2ncc(C3=NC(C)CN3)cc2Cl)CCN1C1CCN(C(=O)c2ccc(Cl)cc2N)CC1 (stereo partly shown) [Compound 45], CC[C@H]1CN(c2ncc(C3=NCCN3)cc2Cl)CCN1C1CCN(Cc2ccc(F)cc2)CC1 [Compound 11], CC[C@H]1CN(c2c(F)cc(-c3ncc[nH]3)cc2C(F)(F)F)CCN1C1CCN(Cc2ccc(Cl)cc2F)CC1 [Compound 59], CC[C@H]1CN(c2ncc(C3=NCCN3)cc2Cl)CCN1C1CCN([C@H](CO)c2ccc(Cl)cc2)CC1 [Compound 64], CC[C@H]1CN(c2ncc(-c3ncc[nH]3)cc2Cl)CCN1C1CCN(Cc2ccc(Cl)cc2C(N)=O)CC1 [Compound 9], CC[C@H]1CN(c2ncc(-c3nccn3C(=O)c3ccc(Cl)cc3)cc2Cl)CCN1C1CCN(C(=O)c2ccc(Cl)cc2)CC1 [Compound 55]

IC50, 25 to 100 nM:
CC[C@H]1CN(c2ncc(-c3cnco3)cc2Cl)CCN1C1CCN(Cc2ccc(Cl)cc2)CC1 [Compound 108], CC[C@H]1CN(c2ncc(C3=NC(C)(C)CN3)cc2Cl)CCN1C1CCN(C(=O)c2ccc(Cl)cc2)CC1 [Compound 105], CC[C@H]1CN(c2ncc(-c3ncc[nH]3)cc2Cl)CCN1C1CCN(C(=O)c2ccc(C(C)=O)cc2)CC1 [Compound 111]
